Measurements taken from patent publication US20210283099A1, “CDC7 KINASE INHIBITORS AND USES THEREOF” (SLOAN-KETTERING INSTITUTE FOR CANCER RESEARCH, priority 2010, published 2021).

Key:
[1] = system: CLL, untreated, chromosome 17 p del.; assay: Cytotoxicity assay (Alamar blue), patient leukemia sample; type: cell-based; conditions: Homo sapiens
Procedure: (§1) FIGS. 16A-16B. Granaticin A and Granaticin B inhibit multiple tumor types: The indicated cell lines and primary patient samples were tested against the compounds listed in standard cytotoxicity assays (12 point dose response using Alamar blue reduction as an indicator of cell viability). Assays were done in triplicate and IC50 determinations were run in 12-point serial dilutions from […] to 5 nM. […] These include ras and EGFR gatekeeper mutation containing cell lines in addition to p53 mutant cell lines and other known chemotherapy resistant cell lines. Specifically, this included multi-drug resistance phenotype (MDR-overexpressing) cell lines from multiple hematologic and solid tumor cell lines. Table 1 highlights a series of primary patient leukemia samples-both acute and chronic and treatment naïve and refractory tested against granaticins A and B and Derivatives 1 and 2 (see Examples).
(§2) Table 1 highlights a series of primary patient leukemia samples-both acute and chronic and treatment naïve and refractory and the effect of granaticin A, granaticin B, derivative 1, and derivative 2 to inhibit cellular proliferation. […] The two starred samples represent serial samples taken from the same patients after they received 2-3 cycles of additional high dose salvage chemotherapy and indicate that although refractory to salvage chemotherapy, the Cdc7 pathway remains a potentially efficacious target as the sensitivity to these compounds remains unchanged. Importantly, each patient sample was resistant to the prior therapy received using this assay.

[2] = system: Biphenotypic acute leukemia 1; assay: as above; type: cell-based; conditions: Homo sapiens
Procedure: as §1, §2

AML, relapsed s/p HSCT = assay: as above; type: cell-based; conditions: Homo sapiens
Procedure: as §1, §2

[3] = system: Biphenotypic acute leukemia 1*; assay: as above; type: cell-based; conditions: Homo sapiens, second sample from the same patient following high-dose chemotherapy
Procedure: as §1, §2

AMMoL = assay: as above; type: cell-based; conditions: Homo sapiens
Procedure: as §1, §2

CML, untreated = assay: as above; type: cell-based; conditions: Homo sapiens
Procedure: as §1, §2

ALL, Ph+ = assay: as above; type: cell-based; conditions: Homo sapiens
Procedure: as §1, §2

AML, de novo = assay: as above; type: cell-based; conditions: Homo sapiens
Procedure: as §1, §2

[4] = system: AML, primary refractory 1; assay: as above; type: cell-based; conditions: Homo sapiens
Procedure: as §1, §2

AML, primary refractory = assay: as above; type: cell-based; conditions: Homo sapiens
Procedure: as §1, §2

[5] = system: AML, primary refractory 1*; assay: as above; type: cell-based; conditions: Homo sapiens, second sample from the same patient following high-dose chemotherapy
Procedure: as §1, §2

AML, relapsed = assay: as above; type: cell-based; conditions: Homo sapiens
Procedure: as §1, §2

PhALL3.1 cells = assay: Caspase 3 fluorometric activity assay in G1 synchronized cells; type: cell-based, human; conditions: 10 hours following release of G1 synchronized cells
HeLa cells = assay: S phase checkpoint western blot analysis; type: cell-based, human
Procedure: FIG. 15. […] HeLa cells were incubated in the presence of granaticin A or carrier control (DMSO) for the indicated times and whole cell extracts were subjected to SDS-PAGE and western blot analysis. Asyn=asynchronously growing HeLa cells. HU=HeLa cells exposed to hydroxyurea for the indicated time. HU was used as a control for DNA damaging agent that is known to […] the DNA damage checkpoint response. Again, we observed that Mcm2 mobility is shifted in the cells treated with granaticin A. MCM2 mobility is not affected by HU. Activation of the DNA damage/replication checkpoint correlates with ATM/ATR dependent phosphorylation of Chk1 at Ser345.

MDA-MB -231 = assay: Cytotoxicity assay (Alamar blue); type: cell-based; conditions: human metastatic breast adenocarcinoma, estrogen, progesterone, and HER2/NEU receptor negative
Procedure: as §1

RH30 = assay: Cytotoxicity assay (Alamar blue); type: cell-based; conditions: Human rhabdomyosarcoma, P53 mutation
Procedure: as §1

SOPA = assay: Cytotoxicity assay (Alamar blue); type: cell-based; conditions: Homo sapiens, Patient sample of secondary AML with chromsome 11q23 abnormality
Procedure: as §1

H820 = assay: Cytotoxicity assay (Alamar blue); type: cell-based; conditions: NCI-H820, human lung adenocarcinoma, Del E746-E749 and T790M EGFR mutations
Procedure: as §1

MCF-10A = assay: Cytotoxicity assay (Alamar blue); type: cell-based; conditions: human normal mammary epithelium
Procedure: as §1

MCF-7 = assay: Cytotoxicity assay (Alamar blue); type: cell-based; conditions: MCF7, human invasive breast ductal carcinoma, estrogen and progesterone receptor positive
Procedure: as §1

A2780 = assay: Cytotoxicity assay (Alamar blue); type: cell-based; conditions: Human ovarian carcinoma
Procedure: as §1

KASUMI4 = assay: Cytotoxicity assay (Alamar blue); type: cell-based; conditions: Kasumi-4, Human CML transformed to acute myeloid leukemia, overexpression of EVI1
Procedure: as §1

HTB15 = assay: Cytotoxicity assay (Alamar blue); type: cell-based; conditions: Human Glioblastoma (U-118MG)
Procedure: as §1

MAWI = assay: Cytotoxicity assay (Alamar blue); type: cell-based; conditions: Homo sapiens, Patient sample of relpased/refractory AML with normal cytogenetics
Procedure: as §1

H2030 = assay: Cytotoxicity assay (Alamar blue); type: cell-based; conditions: NCI-H2030, human lung adenocarcinoma, wild-type EGFR, G12C KRAS mutation, G262V P53 mutation, PTEN null
Procedure: as §1

H1650 = assay: Cytotoxicity assay (Alamar blue); type: cell-based; conditions: NCI-H1650, Human lung adenocarcinoma, DelE746-A750 EGFR mutation, wild-type RAS, PTEN null
Procedure: as §1

human recombinant Cdc7 = human recombinant Cdc7 (Homo sapiens, UniProt O00311); assay: In vitro kinase reaction, Mcm2 phosphorylation by Cdc7; type: biochemical; conditions: radioactive ATP, SDS-PAGE, autoradiography
Procedure: FIG. 8. Mcm2 phosphorylation by Cdc7: Phosphorylated forms of Mcm2 migrate […] in SDS-PAGE gels. Using highly purified human recombinant Cdc7 and Mcm2, standard in vitro kinase reactions were performed in the presence of radioactive ATP and products were separated on SDS-PAGE gels, stained with silver, and autoradiography was performed to detect phosphorylated forms of Mcm2.

[6] = relapsed (first of two such lines, r11)
[7] = relapsed (second of two such lines, r12)

human recombinant Cdc7, sequence (O00311 whole entry): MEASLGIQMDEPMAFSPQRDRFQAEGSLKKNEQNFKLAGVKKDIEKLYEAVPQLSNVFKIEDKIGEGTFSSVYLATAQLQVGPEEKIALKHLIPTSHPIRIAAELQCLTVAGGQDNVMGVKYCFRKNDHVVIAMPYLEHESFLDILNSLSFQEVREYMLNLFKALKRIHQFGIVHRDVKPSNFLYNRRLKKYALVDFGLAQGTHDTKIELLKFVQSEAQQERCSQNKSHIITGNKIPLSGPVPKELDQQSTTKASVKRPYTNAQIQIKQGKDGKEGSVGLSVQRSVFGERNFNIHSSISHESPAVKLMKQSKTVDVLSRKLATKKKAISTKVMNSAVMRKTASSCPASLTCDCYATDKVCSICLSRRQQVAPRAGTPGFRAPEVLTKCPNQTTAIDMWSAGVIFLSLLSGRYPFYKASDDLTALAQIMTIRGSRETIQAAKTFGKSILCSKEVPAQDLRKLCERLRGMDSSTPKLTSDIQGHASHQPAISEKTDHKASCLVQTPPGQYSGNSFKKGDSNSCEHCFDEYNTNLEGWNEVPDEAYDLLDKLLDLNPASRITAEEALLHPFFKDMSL
human recombinant Cdc7, sequence (Q9UBU7 whole entry partner): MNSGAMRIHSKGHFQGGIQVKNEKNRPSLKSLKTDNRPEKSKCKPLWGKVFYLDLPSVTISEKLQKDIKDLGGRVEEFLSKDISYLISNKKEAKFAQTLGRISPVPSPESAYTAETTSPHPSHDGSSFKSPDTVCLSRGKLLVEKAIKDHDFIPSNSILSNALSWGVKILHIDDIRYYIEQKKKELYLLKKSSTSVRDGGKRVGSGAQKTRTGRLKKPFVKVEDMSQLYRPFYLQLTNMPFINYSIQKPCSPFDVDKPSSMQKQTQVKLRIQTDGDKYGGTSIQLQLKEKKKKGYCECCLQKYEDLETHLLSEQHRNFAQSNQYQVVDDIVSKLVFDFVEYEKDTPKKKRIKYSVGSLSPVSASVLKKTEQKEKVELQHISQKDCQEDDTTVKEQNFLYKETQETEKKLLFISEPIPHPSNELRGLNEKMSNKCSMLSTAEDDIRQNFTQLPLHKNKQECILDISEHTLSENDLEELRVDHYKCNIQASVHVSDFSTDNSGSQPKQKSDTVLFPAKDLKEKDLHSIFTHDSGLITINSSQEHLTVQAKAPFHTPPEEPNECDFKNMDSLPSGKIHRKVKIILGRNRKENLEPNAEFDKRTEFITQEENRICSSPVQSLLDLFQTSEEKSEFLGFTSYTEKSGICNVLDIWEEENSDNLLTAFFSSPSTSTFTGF

Structure (SMILES)	IC50 [1] [nM]	IC50 [2] [nM]	IC50 (AML, relapsed s/p HSCT) [nM]	IC50 [3] [nM]	IC50 (AMMoL) [nM]	IC50 (CML, untreated) [nM]	IC50 (ALL, Ph+) [nM]	IC50 (AML, de novo) [nM]	IC50 [4] [nM]	IC50 (AML, primary refractory) [nM]	IC50 [5] [nM]	IC50 (AML, relapsed; [6]) [nM]	IC50 (AML, relapsed; [7]) [nM]	IC50 (MDA-MB -231) [nM]	IC50 (RH30) [nM]	IC50 (SOPA) [nM]	IC50 (H820) [nM]	IC50 (MCF-10A) [nM]	IC50 (MCF-7) [nM]	IC50 (A2780) [nM]	also measured
CC1OC2CC(O)C1(O)c1c(O)c3c(c(O)c12)C(=O)C1=C(C3=O)[C@H](C)O[C@H]2CC(=O)O[C@@H]12 (stereo partly shown) [Granaticin A, granaticin A]	460	300	1880	540	990	260	560	720	750	770	630	1200	210	470	130	100	90	260	170	120	caspase 3 activity / apoptosis (PhALL3.1 cells): induces Caspase 3-mediated apoptosis; double strand DNA breaks (HeLa cells; HeLa cells): increased double strand DNA breaks; Mcm2 mobility (HeLa cells; SDS-PAGE and western blot): shifted; S phase checkpoint activation (HeLa cells; western blot, Chk1 Ser345): does not activate the S phase checkpoint; IC50 (KASUMI4): 300 nM; IC50 (HTB15): 650 nM; IC50 (MAWI): 720 nM; IC50 (H2030): 490 nM; IC50 (H1650): 290 nM; Cdc7 kinase activity on Mcm2 (human recombinant Cdc7): small molecule inhibitor of Cdc7 kinase activity
CC1OC2CC(O[C@H]3CC[C@H](O)[C@H](C)O3)C1(O)c1c(O)c3c(c(O)c12)C(=O)C1=C(C3=O)[C@H](C)O[C@H]2CC(=O)O[C@@H]12 (stereo partly shown) [Granaticin B, granaticin B]	310	40	620	100	490	80	190	180	110	140	100	100	50	290	80	90	50	240	130	20	IC50 (KASUMI4): 180 nM; IC50 (HTB15): 460 nM; IC50 (MAWI): 180 nM; IC50 (H2030): 220 nM; IC50 (H1650): 60 nM
